Holding throughout (type): functional
For one test, the system named is CAKI-1. Description: Compound was tested in vitro for growth inhibition of CAKI-1 cells derived from human renal tumor.
The test system of another test is COLO 205. Nature of the test: Compound was tested in vitro for growth inhibition of COLO 205 cells derived from human colon tumor.
A further test deals with CCRF-CEM. Description: Compound was tested in vitro for growth inhibition of CCRF-CEM cells derived from human leukemia.
Another test concerns MDA-N. Description: Compound was tested in vitro for growth inhibition of MDA-N cells derived from human breast tumor.
A further test deals with OVCAR-8. Nature of the test: Compound was tested in vitro for growth inhibition of OVCAR-8 cells derived from human ovarian tumor.
A further test relates to NCI-H522. Description: Compound was tested in vitro for growth inhibition of […] cells derived from human lung tumor.
A further test deals with SF-295. Nature of the test: Compound was tested in vitro for growth inhibition of SF 295 cells derived from CNS tumor. Conditions: Homo sapiens.
For the next test, the system named is SK-MEL-5. Nature of the test: Compound was tested in vitro for growth inhibition of SK-MEL-5 cells derived from human melanoma.
In another test the test system is PC-3. Nature of the test: Compound was tested in vitro for growth inhibition of PC 3 cells derived from human prostate tumor.
The test system of a further test is MCF7. Nature of the test: Compound was tested in vitro for growth inhibition of MCF-7 cells derived from human breast tumor.
The next test deals with NCI/ADR-RES. Description: Compound was tested in vitro for growth inhibition of MCF-7/ADR cells that exhibit MDR phenotype. Conditions: Homo sapiens.
In the next test the test system is P388. Description: Compound was tested in vitro for growth inhibition of murine leukemic P388 cells. Particulars: Mus musculus.
In another test the test system is P388/ADR. Description: Compound was tested in vitro for growth inhibition of murine leukemic P388/ADR cells that exhibit MDR phenotype. Conditions: Mus musculus.

Broadly, the GI50 is the concentration at which growth is held to half of that of the control. A higher GI50 goes with lower sensitivity of the cells.

`COc1ccc(NS(=O)(=O)c2ccc(F)c(F)c2F)cc1`: the GI50 in the test on CAKI-1 turned out to be 5500 nM; in the test on COLO 205, 1300 nM; in the test on CCRF-CEM, 600 nM; with MDA-N, 1400 nM; with OVCAR-8, 5000 nM; in the test with NCI-H522 it was 371 nM. In addition, the GI50 was determined as 2700 nM with SF-295, 1000 nM with SK-MEL-5 and 3200 nM with PC-3.
Regarding `Cc1ccc(NS(=O)(=O)c2c(F)c(F)c(F)c(F)c2F)cc1C`, the GI50 with CAKI-1 came to 479 nM; with COLO 205, 220 nM; in the test on CCRF-CEM it was 68 nM; in the test on MCF7, 120 nM; with MDA-N it was 123 nM; with NCI/ADR-RES it was 320 nM. Also, the GI50 in the test with OVCAR-8 was 437 nM; in the test on NCI-H522, 49 nM; in the test with P388 it was 37 nM; with P388/ADR, 110 nM; in the test on SF-295 it was 479 nM; with SK-MEL-5 it was 151 nM. Besides, the concentration for 50% growth inhibition (GI50) with PC-3 was 468 nM.
With `O=S(=O)(Nc1ccc2[nH]ccc2c1)c1c(F)c(F)c(F)c(F)c1F`, the GI50 in the test on CAKI-1 is 72 nM; in the test with COLO 205, 14 nM; in the test with CCRF-CEM it was < 10 nM; in the test with MCF7 it was 28 nM; with MDA-N, 21 nM; with NCI/ADR-RES, 115 nM. Also, the GI50 is 50 nM in the test with OVCAR-8; < 10 nM in the test on NCI-H522; 12 nM in the test with P388; 32 nM with P388/ADR; 40 nM in the test on SF-295; 13 nM in the test on SK-MEL-5. For the same compound, the GI50 with PC-3 was 35 nM.
As for `CC(=O)O[C@H]1C(=O)[C@@]2(C)[C@H]([C@H](OC(=O)c3ccccc3)[C@]3(O)C[C@H](OC(=O)[C@H](O)[C@@H](NC(=O)c4ccccc4)c4ccccc4)C(C)=C1C3(C)C)[C@]1(OC(C)=O)CO[C@@H]1C[C@@H]2O` [PACLITAXEL], the GI50 in the test on MCF7 was 1.1 nM; with NCI/ADR-RES, > 15000 nM; with P388 it was 16 nM; with P388/ADR, > 15000 nM.
On to `CC[C@]1(O)C[C@@H]2CN(CCc3c([nH]c4ccccc34)[C@@](C(=O)OC)(c3cc4c(cc3OC)N(C)[C@H]3[C@@](O)(C(=O)OC)[C@H](OC(C)=O)[C@]5(CC)C=CCN6CC[C@]43[C@@H]65)C2)C1` [VINBLASTINE], for which the GI50 is 2.3 nM with MCF7, 350 nM with NCI/ADR-RES, 4.1 nM in the test with P388 and 470 nM with P388/ADR.
As for `O=S(=O)(Nc1ccc2c(c1)OCCO2)c1c(F)c(F)c(F)c(F)c1F`, the GI50 in the test with CAKI-1 turned out to be 63 nM; in the test on COLO 205, 19 nM; in the test on CCRF-CEM, 51 nM; with MCF7, 430 nM; in the test with MDA-N, 40 nM; in the test with NCI/ADR-RES, 410 nM. Besides, the GI50 with OVCAR-8 came to 91 nM; with NCI-H522, 26 nM; in the test on P388, 140 nM; with P388/ADR it was 340 nM; with SF-295, 54 nM; in the test on SK-MEL-5, 20 nM. In addition, the GI50 in the test on PC-3 came to 62 nM.
For the compound `CN(C)c1ccc(NS(=O)(=O)c2c(F)c(F)c(F)c(F)c2F)cc1`, the GI50 was 417 nM with CAKI-1; 220 nM in the test on COLO 205; 320 nM in the test on CCRF-CEM; 34 nM in the test with MCF7; 30 nM with MDA-N; 96 nM with NCI/ADR-RES. The GI50 in the test with OVCAR-8 is 372 nM; with NCI-H522, 58 nM; with P388, 27 nM; in the test with P388/ADR it was 36 nM; in the test with SF-295, 501 nM; in the test with SK-MEL-5 it was 183 nM. Also, in the test on PC-3, it took 525 nM to inhibit growth by half (GI50).
On to `COc1ccc(NS(=O)(=O)c2c(F)c(F)c(F)c(F)c2F)cc1`, for which the GI50 in the test with CAKI-1 was 56 nM; in the test on COLO 205, < 10 nM; in the test on CCRF-CEM, < 10 nM; with MCF7, 29 nM; in the test with MDA-N, 41 nM; in the test on NCI/ADR-RES, 58 nM. Besides, the GI50 in the test on OVCAR-8 is 50 nM; in the test with NCI-H522, < 10 nM; in the test with P388, 12 nM; in the test on P388/ADR, 34 nM; in the test with SF-295, 11 nM; in the test on SK-MEL-5, < 10 nM. Moreover, the GI50 in the test on PC-3 was < 10 nM.

The values are drawn from ChEMBL document CHEMBL1131395, “Novel antineoplastic agents with efficacy against multidrug resistant tumor cells” (1998).
